Laboratory results reported in US9328099B2, “Cyanomethylpyrazole carboxamides as janus kinase inhibitors” (Merck Sharp & Dohme Corp., priority 2011, dated 2016).

Columns and labels:
JAK2 = JAK2 (Homo sapiens (Human), UniProt O60674); assay: Jak Biochemical HTRF Assay, JAK2; conditions: HTRF biochemical assay, GST-tagged catalytic domain; top concentration tested […]
From the text: (§1) Jak Biochemical HTRF Assay Protocol
(§2) Subsequent reagent additions employed an Agilent Bravo.

JAK1 = JAK1 (Homo sapiens (Human), UniProt P23458); assay: Jak Biochemical HTRF Assay, JAK1; conditions: HTRF biochemical assay, GST-tagged catalytic domain; top concentration tested […]; read-out: JAK1 IC50
Chain of JAK1 (P23458 875-1153): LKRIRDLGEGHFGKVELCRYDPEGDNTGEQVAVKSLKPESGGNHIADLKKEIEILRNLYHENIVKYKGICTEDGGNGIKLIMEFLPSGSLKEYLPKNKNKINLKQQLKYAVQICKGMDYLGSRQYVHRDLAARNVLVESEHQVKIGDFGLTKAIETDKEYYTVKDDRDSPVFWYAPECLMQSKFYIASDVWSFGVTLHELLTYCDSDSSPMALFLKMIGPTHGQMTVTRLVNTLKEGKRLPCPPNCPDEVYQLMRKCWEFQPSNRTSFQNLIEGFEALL
From the text: as §1, §2

Chain of JAK2 (O60674 849-1124): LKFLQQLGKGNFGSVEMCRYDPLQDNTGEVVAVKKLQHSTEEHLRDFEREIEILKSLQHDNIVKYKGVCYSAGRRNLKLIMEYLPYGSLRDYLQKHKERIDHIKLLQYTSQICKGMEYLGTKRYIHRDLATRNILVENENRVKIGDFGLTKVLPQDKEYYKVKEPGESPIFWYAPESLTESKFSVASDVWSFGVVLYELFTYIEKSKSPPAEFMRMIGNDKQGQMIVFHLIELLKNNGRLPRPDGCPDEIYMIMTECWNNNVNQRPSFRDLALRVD

| IC50 (JAK2) [nM] | IC50 (JAK1) [nM] | Compound |
| --- | --- | --- |
| 16 | 0.6 | N#CCC1(n2cc(C(N)=O)c(Nc3ccc(F)cc3)n2)CCN(Cc2cc(F)ccn2)CC1 [Example 22-50, 1-{4-(cyanomethyl)-1-[(4-fluoropyridin-2-yl)methyl]piperidin-4-yl}-3-[(4-fluorophenyl)amino]-1H-pyrazole-4-carboxamide] |
| 9 | 0.4 | N#CCC1(n2cc(C(N)=O)c(Nc3ccc(F)cc3)n2)CCN(Cc2cccnc2)CC1 [Example 22-51, 1-[4-(cyanomethyl)-1-(pyridin-3-ylmethyl)piperidin-4-yl]-3-[(4-fluorophenyl)amino]-1H-pyrazole-4-carboxamide] |
| 25 | 1 | N#CCC1(n2cc(C(N)=O)c(Nc3ccc(F)cc3)n2)CCN(Cc2cnccn2)CC1 [Example 22-52, 1-[4-(cyanomethyl)-1-(pyrazin-2-ylmethyl)piperidin-4-yl]-3-[(4-fluorophenyl)amino]-1H-pyrazole-4-carboxamide] |
| 87 | 4 | N#CCC1(n2cc(C(N)=O)c(Nc3ccc(F)cc3)n2)CCN(Cc2ccnc3[nH]ccc23)CC1 [Example 22-53, 1-[4-(cyanomethyl)-1-(1H-pyrrolo[2,3-b]pyridin-4-ylmethyl)piperidin-4-yl]-3-[(4-fluorophenyl)amino]-1H-pyrazole-4-carboxamide] |
| 28 | 1 | N#CCC1(n2cc(C(N)=O)c(Nc3ccc(F)cc3)n2)CCN(Cc2ccco2)CC1 [Example 22-54, 1-[4-(cyanomethyl)-1-(furan-2-ylmethyl)piperidin-4-yl]-3-[(4-fluorophenyl)amino]-1H-pyrazole-4-carboxamide] |
| 53 | 4 | N#CCC1(n2cc(C(N)=O)c(Nc3ccc(F)cc3)n2)CCN(Cc2ccc3[nH]ccc3c2)CC1 [Example 22-55, 1-[4-(cyanomethyl)-1-(1H-indol-5-ylmethyl)piperidin-4-yl]-3-[(4-fluorophenyl)amino]-1H-pyrazole-4-carboxamide] |
| 46 | 2 | N#CCC1(n2cc(C(N)=O)c(Nc3ccc(F)cc3)n2)CCN(Cc2ccc3cc[nH]c3c2)CC1 [Example 22-56, 1-[4-(cyanomethyl)-1-(1H-indol-6-ylmethyl)piperidin-4-yl]-3-[(4-fluorophenyl)amino]-1H-pyrazole-4-carboxamide] |
| 280 | 14 | N#CCC1(n2cc(C(N)=O)c(Nc3ccc(F)cc3)n2)CCN(Cc2cccc3[nH]ccc23)CC1 [Example 22-57, 1-[4-(cyanomethyl)-1-(1H-indol-4-ylmethyl)piperidin-4-yl]-3-[(4-fluorophenyl)amino]-1H-pyrazole-4-carboxamide] |
| 128 | 4 | N#CCC1(n2cc(C(N)=O)c(Nc3ccc(F)cc3)n2)CCN(Cc2cccc3cc[nH]c23)CC1 [Example 22-58, 1-[4-(cyanomethyl)-1-(1H-indol-7-ylmethyl)piperidin-4-yl]-3-[(4-fluorophenyl)amino]-1H-pyrazole-4-carboxamide] |
| 7 | 0.2 | N#CCC1(n2cc(C(N)=O)c(Nc3ccnc(F)c3)n2)CCN(Cc2ccccc2Cl)CC1 [Example 22-59, 1-[1-(2-chlorobenzyl)-4-(cyanomethyl)piperidin-4-yl]-3-[(2-fluoropyridin-4-yl)amino]-1H-pyrazole-4-carboxamide] |
| 6 | 0.1 | N#CCC1(n2cc(C(N)=O)c(Nc3ccnc(F)c3)n2)CCN(Cc2ccc(O)cc2)CC1 [Example 22-60, 1-[4-(cyanomethyl)-1-(4-hydroxybenzyl)piperidin-4-yl]-3-[(2-fluoropyridin-4-yl)amino]-1H-pyrazole-4-carboxamide] |
| 10 | 0.4 | N#CCC1(n2cc(C(N)=O)c(Nc3ccnc(F)c3)n2)CCN(Cc2cccc(Cl)c2)CC1 [Example 22-61, 1-[1-(3-chlorobenzyl)-4-(cyanomethyl)piperidin-4-yl]-3-[(2-fluoropyridin-4-yl)amino]-1H-pyrazole-4-carboxamide] |
| 33 | 0.9 | N#CCC1(n2cc(C(N)=O)c(Nc3ccnc(F)c3)n2)CCN(Cc2cccc(C#N)c2)CC1 [Example 22-62, 1-[1-(3-cyanobenzyl)-4-(cyanomethyl)piperidin-4-yl]-3-[(2-fluoropyridin-4-yl)amino]-1H-pyrazole-4-carboxamide] |
| 20 | 0.5 | COc1cccc(CN2CCC(CC#N)(n3cc(C(N)=O)c(Nc4ccnc(F)c4)n3)CC2)c1 [Example 22-63, 1-[4-(cyanomethyl)-1-(3-methoxybenzyl)piperidin-4-yl]-3-[(2-fluoropyridin-4-yl)amino]-1H-pyrazole-4-carboxamide] |
| 16 | 1 | COc1ccc(CN2CCC(CC#N)(n3cc(C(N)=O)c(Nc4ccnc(F)c4)n3)CC2)cc1 [Example 22-65, 1-[4-(cyanomethyl)-1-(4-methoxybenzyl)piperidin-4-yl]-3-[(2-fluoropyridin-4-yl)amino]-1H-pyrazole-4-carboxamide] |
| 68 | 1 | N#CCC1(n2cc(C(N)=O)c(Nc3ccnc(F)c3)n2)CCN(Cc2cccc(=O)[nH]2)CC1 [Example 22-67, 1-{4-(cyanomethyl)-1-[(6-oxo-1,6-dihydropyridin-2-yl)methyl]piperidin-4-yl}-3-[(2-fluoropyridin-4-yl)amino]-1H-pyrazole-4-carboxamide] |
| 9 | 0.2 | N#CCC1(n2cc(C(N)=O)c(Nc3ccnc(F)c3)n2)CCN(Cc2ccc(C#N)cc2)CC1 [Example 22-69, 1-[1-(4-cyanobenzyl)-4-(cyanomethyl)piperidin-4-yl]-3-[(2-fluoropyridin-4-yl)amino]-1H-pyrazole-4-carboxamide] |
| 1 | 0.04 | N#CCC1(n2cc(C(N)=O)c(Nc3ccnc(F)c3)n2)CCN(Cc2cccc(O)c2)CC1 [Example 22-70, 1-[4-(cyanomethyl)-1-(3-hydroxybenzyl)piperidin-4-yl]-3-[(2-fluoropyridin-4-yl)amino]-1H-pyrazole-4-carboxamide] |
| 4 | 0.1 | N#CCC1(n2cc(C(N)=O)c(Nc3ccnc(F)c3)n2)CCN(Cc2ccc(Cl)cc2)CC1 [Example 22-71, 1-[1-(4-chlorobenzyl)-4-(cyanomethyl)piperidin-4-yl]-3-[(2-fluoropyridin-4-yl)amino]-1H-pyrazole-4-carboxamide] |
| 13 | 0.3 | N#CCC1(n2cc(C(N)=O)c(Nc3ccnc(F)c3)n2)CCN(Cc2ccccc2C#N)CC1 [Example 22-72, 1-[1-(2-cyanobenzyl)-4-(cyanomethyl)piperidin-4-yl]-3-[(2-fluoropyridin-4-yl)amino]-1H-pyrazole-4-carboxamide] |
| 105 | 4 | CC(c1ccccc1)N1CCC(CC#N)(n2cc(C(N)=O)c(Nc3ccc(F)cc3)n2)CC1 (stereo not drawn) [Example 23, 1-(4-(Cyanomethyl)-1-(1-phenylethyl)piperidin-4-yl)-3-((4-fluorophenyl)amino)-1H-pyrazole-4-carboxamide] |
| 917 | 41 | N#CCC1(n2cc(C(N)=O)c(Nc3ccc(F)cc3)n2)CCN(CC2CC2)CC1 [Example 24-2, 1-[4-(cyanomethyl)-1-(cyclopropylmethyl)piperidin-4-yl]-3-[(4-fluorophenyl)amino]-1H-pyrazole-4-carboxamide] |
| 2 | 0.08 | N#CCC1(n2cc(C(N)=O)c(Nc3ccc(F)cc3)n2)CCN(c2ccccn2)CC1 [Example 25, 1-(4-(Cyanomethyl)-1-(pyridin-2-yl)piperidin-4-yl)-3-(4-fluorophenylamino)-1H-pyrazole-4-carboxamide] |
| 5 | 0.4 | N#CCC1(n2cc(C(N)=O)c(Nc3ccc(F)cc3)n2)CCN(c2ccncn2)CC1 [Example 26, 1-[4-(Cyanomethyl)-1-pyrimidin-4-ylpiperidin-4-yl]-3-[(4-fluorophenyl)amino]-1H-pyrazole-4-carboxamide] |
| 2 | 0.3 | COC(=O)N1CCC(CC#N)(n2cc(C(N)=O)c(Nc3ccc(S(=O)(=O)C(F)(F)F)cc3)n2)CC1 [Example 27-1, Methyl 4-(4-carbamoyl-3-(4-(trifluoromethylsulfonyl)phenylamino)-1H-pyrazol-1-yl)-4-(cyanomethyl)piperidine-1-carboxylate] |
| 6 | 0.3 | COCCOC(=O)N1CCC(CC#N)(n2cc(C(N)=O)c(Nc3ccc(S(=O)(=O)C(F)(F)F)cc3)n2)CC1 [Example 27-2, 2-methoxyethyl 4-(4-carbamoyl-3-(4-(trifluoromethylsulfonyl)phenylamino)-1H-pyrazol-1-yl)-4-(cyanomethyl)piperidine-1-carboxylate] |
| 16 | 1 | COC(=O)N1CCC(CC#N)(n2cc(C(N)=O)c(Nc3ccc(S(C)(=O)=O)cc3)n2)CC1 [Example 27-3, methyl 4-(4-carbamoyl-3-{[4-(methylsulfonyl)phenyl]amino}-1H-pyrazol-1-yl)-4-(cyanomethyl)piperidine-1-carboxylate] |
| 85 | 3 | N#CCC1(n2cc(C(N)=O)c(Nc3ccccc3)n2)CCN(C(=O)OCc2ccccc2)CC1 [Example 27-4, benzyl 4-[4-carbamoyl-3-(phenylamino)-1H-pyrazol-1-yl]-4-(cyanomethyl)piperidine-1-carboxylate] |
| 235 | 50 | COC(=O)N1CCC(CC#N)(n2cc(C(N)=O)c(Nc3ccccc3)n2)CC1 [Example 27-5, methyl 4-[4-carbamoyl-3-(phenylamino)-1H-pyrazol-1-yl]-4-(cyanomethyl)piperidine-1-carboxylate] |

| Compound | IC50 (JAK2) [nM] | IC50 (JAK1) [nM] |
| --- | --- | --- |
| N#CCC1(n2cc(C(N)=O)c(Nc3ccc(F)cc3)n2)CCN(CCF)CC1 [Example 24-1, 1-(4-(Cyanomethyl)-1-(2-fluoroethyl)piperidin-4-yl)-3-((4-fluorophenyl)amino)-1H-pyrazole-4-carboxamide] | 59 | 10 |
